Source: patent publication US20240316008A1, “TREATMENT OF SYSTEMIC IMMUNE ACTIVATION SYNDROMES” (TRANQUIS THERAPEUTICS, INC., priority 2020, published 2024)
Where a name gives a salt, the structure may show the parent alone.

Experiments:
[1] = test system: ALS; settings: transgenic mouse model of ALS; cited from earlier work
[2] = test system: TNFα; assay: TNFα release by LPS-stimulated BV2 cells (ELISA); assay type: cell-based, murine; settings: BV-2 cells, ELISA, concentration-response
Procedure: First, 100 μl of supernatant was removed from Cell Plate and transferred to a Dilution Plate, which was then centrifuged at 216×g for 10 minutes to remove particulates. The dilution plate was either assayed immediately or aliquots were taken and stored at stored at ≤−20° C.; repeated freeze-thaw cycles were avoided.
Next, a standard curve was prepared by first pipetting 900 ul of Calibrator Diluent RD5K into the 700 pg/mL tube, followed by 200 μl of the appropriate calibrator diluent in the remaining tubes. The stock solution was used to produce a dilution. The resulting tubes were then thoroughly mixed. The Mouse TNFα Standard (700 pg/mL) served as the high standard, and the Calibrator Diluent RD5T served as the zero standard at 0 pg/ml.
Assay Diluent RD1-63 (50 ul) was then added to the center of each well and mixed before and during its use. Then, 50 ul of either standard, control, or sample was added to the center of each well, and covered with adhesive strip. The plate was then mixed for 1 minute and incubated for 2 hours at room temperature.
Each well was then aspirated and washed by filling each well with Wash Buffer (400 ul) five times. After the last wash, the remaining Wash Buffer was removed by aspirating or decanting. TNFα […] conjugate (100 ul) was then added to each well, covered with adhesive strip, incubated for 2 hours at room temperature, and washed and/or aspirated five times.
Substrate solution (100 ul) was then added to each well, incubated in the dark for 30 minutes at room temperature, followed by addition of 100 μl of Stop Solution and mixed. The optical density of each well was determined within 30 minutes by using a microplate reader set to 450 nm.
Plates were read on a Spectrostar Nano machine with built-in MARS data analysis at […].
For TNFα ELISA, the BV-2 cells were very responsive to low concentrations of LPS. A concentration range of 0.1 ng/ml to 1,000 ng/ml was tested. 0.3 ng/ml LPS produced enough TNFα release (8-10 fold above background) from these cells after 22 hours stimulation without saturating the linear range of the ELISA detection system. If higher LPS concentrations are used for stimulating BV-2 cells, a […] is advised to stay within the linear range of the detection system. The current TNFα protocol uses 10,000 cells per well in 96 well plate. A cell count titration can optimize S/B ratio. Miniaturization from 96 well to 384 well is also feasible with this assay.
The TNFα ELISA assay is described in Example 5. The IL-6 assay is described below.

[3] = test system: IL-6; assay: IL-6 secretion from LPS-stimulated BV2 cells (ELISA); assay type: cell-based, murine; settings: BV-2 cells, concentration-response
Procedure: [1] First, 100 μl of supernatant from cell plate was removed and transferred to a dilution plate, followed by centrifugation of the dilution plate at 216×g for 10 minutes to remove particulates. The dilution plate was then either assayed immediately or aliquots were taken and stored at ≤−20° C.; repeated freeze-thaw cycles should be avoided. Mouse IL-6 Standard (500 pg/mL) served as the high standard, and the Calibrator Diluent RD5T served as the zero standard at 0 pg/ml. Assay Diluent RD1-14 (50 μl) was then added to the center of each well and mixed before and during its use. Then, 50 μl of standard, control, or sample was added to the center of each well, and covered with adhesive strip. The plate was then mixed for 1 minute and incubated for 2 hours at room temperature. Each well was then aspirated and washed by filling each well with wash buffer (400 ul) five times. After the last wash, the remaining Wash Buffer was removed by aspirating or decanting. Mouse IL-6 conjugate (100 ul) was then added to each well, covered with adhesive strip, incubated for 2 hours at room temperature, and washed and/or aspirated five times.
Substrate solution (100 ul) was then added to each well, incubated in the dark for 30 minutes at room temperature, followed by addition of 100 ul of Stop Solution and mixed. The optical density of each well was determined within 30 minutes by using a microplate reader set to 450 nm.

[4] = test system: sepsis; assay: Mouse model of sepsis / hyperinflammation (virus followed by LPS, as described in Wang); settings: mice, intravenous, various doses
Procedure: Briefly, mice are anesthetized with a ketamine/xylazine mixture. A virus, such as a coronavirus, influenza virus, rhinovirus, respiratory syncytial virus, metapneumovirus, adenovirus, or a boca virus, is administered. The virus may be administered intranasally dropwise.
Next, LPS diluted in a buffer, such as PBS, is injected intraperitoneally at specific doses.
To provide comparators for assessing the effects of TQS-168 and its analogs, groups of positive control mice are treated with one or more antibodies against pro-inflammatory cytokines of interest: anti-NK1.1 antibody (PK136; Bio X Cell) diluted in PBS is injected at 100 μg per injection (100 μL) retro-orbitally concurrently with each challenge; anti-IFNγ antibody (XMG1.2, Bio X Cell) is diluted in PBS and injected at 500 μg per injection (100 μL) retro-orbitally concurrently with each challenge; anti-IL6R (15A7.10 mg/kg; Bio X Cell), anti-TNFα (XT3.11, 500 μg per injection; Bio X Cell), anti-IFNαR (MAR1-5A3, 10 mg/kg; Bio X Cell), and anti-IL1β (B122, 500 μg per injection; Bio X Cell) are injected retro-orbitally. For a negative control, isotype antibody is injected retro-orbitally.
The pro-inflammatory cytokines can be measured using the ELISA assay described in Example 1.

[5] = test system: 12 human primary cell-based systems; settings: 5000 μM, comparator profile; cited from earlier work

SMILES | disease onset [1] | lifespan [1] | LPS-stimulated TNFα secretion [2] | LPS-stimulated IL-6 secretion [3] | circulating concentrations of pro-inflammatory cytokines [4] | hyperinflammatory symptoms [4] | T-cell proliferation, IgG, TNFα, and IL-8 [5]
CC(=O)N(O)CCCCCNC(=O)CCC(=O)N(O)CCCCCNC(=O)CCC(=O)N(O)CCCCCN [Deferoxamine, deferoxamine mesylate] | delay | extend |  |  |  |  | 
CC(C)(C)c1ccc(-c2nc3ccncc3[nH]2)cc1 [TQS-234] |  |  | decrease | decrease |  |  | 
CC(C)(C)c1ccc(-c2nc3c(F)cc(F)cc3[nH]2)cc1 [TQS-235] |  |  | decrease | decrease | effective in reducing | effective in reducing | 
CC(C)(C)c1ccc(-c2nc3cc(C(F)(F)F)ccc3[nH]2)cc1 [TQS-236] |  |  | decrease | decrease |  |  | 
CC(C)(C)c1cccc(-c2nc3c(F)cc(F)cc3[nH]2)c1 [TQS-237] |  |  | decrease | decrease | effective in reducing | effective in reducing | 
CC(C)(C)c1ccc(-c2cn3ccccc3n2)cc1 [TQS-238] |  |  | decrease | decrease |  |  | 
[2H]c1c([2H])c([2H])c2[nH]c(-c3ccc(C(C)(C)C)cc3)nc2c1[2H] [TQS-239] |  |  | decrease | decrease |  |  | 
CC(C)(C)c1ccc(-c2nc3c(F)c(F)c(F)cc3[nH]2)cc1 [TQS-240] |  |  | decrease | decrease | effective in reducing | effective in reducing | 
CN(C)C(=N)N=C(N)N [metformin, metformin hydrochloride] |  |  |  |  |  |  | inhibit
